Experimental data published in patent US20150159167A1, “Plants Tolerant to HPPD Inhibitor Herbicides” (Bayer CropScience AG, priority 2009, published 2015).

How the values were obtained:
[1] = test system: Synechococcus sp. HPPD "SEQ ID No. 5"; assay: HPPD activity in presence of HPPD inhibitors (pI50, % inhibition); assay type: biochemical; details: for percentage of inhibition: 5.0 × 10^−6 M inhibitor, compared to activity in absence of inhibitor; for pI50: 2 mM HPP, 3 minutes incubation
Text: (§1) In this content, pI50-value means the log value of the concentration of inhibitor necessary to inhibit 50% of the enzyme activity in molar concentration.

[2] = test system: T1 tobacco plants carrying FMP38e; assay: Glasshouse response to bicyclopyrone, injury classes; assay type: in vivo, Nicotiana tabacum; details: 100 g AI/ha, 7 DAT
Text: (§2) Seeds of wild type tobacco plants and T1 tobacco plants carrying the gene from Synechococcus sp. FMP38e coding for HPPD were sown on MS media (Murashige and Skoog 1964) supplemented with […] kanamycin. After 4 weeks, rooted green plantlets were transferred to soil and grown for 3 weeks in the glasshouse as described above then sprayed with a mixture containing bicyclopyrone (100 g AI/ha), ammonium sulfate and methyl ester raps oil. The plants were classified in two categories based on the phenotype developed in response to the herbicide seven days after the treatment. […] In this case, only plants containing at least one T-DNA were exposed to the herbicidal treatment.

wild type tobacco plants = assay: as above; assay type: in vivo, Nicotiana tabacum; details: 100 g AI/ha, 7 DAT; line WT
Text: as §2

[3] = target: Synechococcus sp. HPPD "SEQ ID No. 5"; assay: HPLC assay of HPPD activity, in vitro kinetic properties; assay type: biochemical
Description: Km, Vmax, and kcat values for different HPPD enzyme preparations and Ki, K1=Kon, and K−1=Koff for different HPPD inhibitors were determined using a HPLC assay for measurements of HPPD activity. […] All assays were started by the addition of HPPD enzyme to the assay mixture and stopped at a series of times between 0 and 240 s by addition of 200 μl of the reaction mixture to reaction assay tubes containing 20 μl 10% perchloric acid. Precipitated protein was pelleted by a 5 minute centrifugation at 10,000 g. […] A standard set of concentrations of HGA were used to provide a standard curve in order to calibrate the 292 nm absorbance of the HGA peak versus HGA concentration.
For Km and Vmax value determinations the initial rates of the HPPD reaction at different substrate concentrations were determined from plots of HGA formed versus time and fitted to the Michaelis-Menten equation for unireactant enzymes using the ID Business Solutions Ltd. (idbs.com) XLfit software suite. For the determination of Ki, K1=Kon, and K=−1=Koff values the time-courses of the HPPD reaction at different inhibitor concentrations were fitted to the equations for Mechanism A, competitive inhibition, for tight-binding inhibitors (Cha, S. (1975) Tight-binding inhibitors-I. Kinetic behaviour. Biochemical Pharmacology 24, 2177-2185) using the ID Business Solutions Ltd. XLfit software suite
(§3) In below given table 1, “Km” (Michaelis-Menten constant) means the kinetic parameter that is used to characterise an enzyme, and it is defined as the concentration of substrate that permits half maximal rate of the reaction. Km is further defined as the substrate concentration at which the reaction rate reaches half of its maximum value (Vmax/2) where Vmax has the meaning of being the maximum velocity of the reaction.
(§4) Kon=K1 equals the association rate constant of the […] binding and Koff=K−1 equals the rate constant of the enzyme-inhibitor complex dissociation. Ki defines the inhibition constant.

[4] = target: T1, Arabidopsis thaliana HPPD "SEQ ID No. 10" (Arabidopsis thaliana, UniProt P93836); assay: as above; assay type: biochemical; details: substrate HPP varied between 10 and 400 μM
T1 construct: Preparation of Synechococcus sp; Ala + 6xHis (N); made in house; host or cells: E. coli K-12 BL21 (pQE30-AtHPPD)
T1 sequence (P93836 with tags, fused parts or gaps): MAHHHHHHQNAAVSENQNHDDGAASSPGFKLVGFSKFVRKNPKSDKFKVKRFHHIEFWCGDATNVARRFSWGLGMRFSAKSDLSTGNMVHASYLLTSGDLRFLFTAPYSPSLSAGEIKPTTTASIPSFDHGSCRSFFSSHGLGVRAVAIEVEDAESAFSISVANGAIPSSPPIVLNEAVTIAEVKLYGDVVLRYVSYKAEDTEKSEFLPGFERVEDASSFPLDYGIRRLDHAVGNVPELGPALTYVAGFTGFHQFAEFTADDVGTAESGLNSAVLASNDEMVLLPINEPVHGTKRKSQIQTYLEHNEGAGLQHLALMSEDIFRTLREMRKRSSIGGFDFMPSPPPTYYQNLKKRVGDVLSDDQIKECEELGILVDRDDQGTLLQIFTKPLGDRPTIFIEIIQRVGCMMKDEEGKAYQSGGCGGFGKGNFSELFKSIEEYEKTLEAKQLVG
Description: Km, Vmax, and kcat values for different HPPD enzyme preparations and Ki, K1=Kon, and K−1=Koff for different HPPD inhibitors were determined using a HPLC assay for measurements of HPPD activity. […] All assays were started by the addition of HPPD enzyme to the assay mixture and stopped at a series of times between 0 and 240 s by addition of 200 μl of the reaction mixture to reaction assay tubes containing 20 μl 10% perchloric acid. Precipitated protein was pelleted by a 5 minute centrifugation at 10,000 g.
For Km and Vmax value determinations the initial rates of the HPPD reaction at different substrate concentrations were determined from plots of HGA formed versus time and fitted to the Michaelis-Menten equation for unireactant enzymes using the ID Business Solutions Ltd. (idbs.com) XLfit software suite.
as §3, §4

wild-type soybean shoots = assay: Soybean shoot greening under isoxaflutole selection; assay type: in vivo; details: same amount of isoxaflutole
Text: (§5) Soybean transformation is achieved using methods well known in the art, such as the one described using the Agrobacterium tumefaciens mediated transformation soybean half-seed explants described by Paz et al. (2006, Plant cell Rep. 25:206). Transformants were identified using Isoxaflutole as selection marker. The appearance of green shoots was observed, and documented as an indicator of tolerance to the herbicide isoxaflutole. […] Tolerant green shoots were transferred to rooting media or grafted. Rooted plantlets are transferred to the glasshouse after an acclimation period.

[5] = test system: transgenic soybean shoots (FMP38); assay: as above; assay type: in vivo; details: isoxaflutole as selection marker
Text: as §5

[6] = target: T1, Arabidopsis thaliana HPPD "SEQ ID No. 10"; assay: HPPD activity in presence of HPPD inhibitors (pI50, % inhibition); assay type: biochemical
Text: as §1

[7] = substrate HPP varied between 10 and 400 μM

Work on `Cc1ccc(C(=O)COc2c(C(=O)c3ccc(Cl)c(C)c3Cl)c(C)nn2C)cc1` [Benzofenap] yielded a percentage of inhibition [1] of 31%.
With `COCCOCc1nc(C(F)(F)F)ccc1C(=O)C1=C(O)C2CCC(C2)C1=O` (stereo not drawn) [Bicyclopyrone, 4-hydroxy-3-[[2-[(2-methoxyethoxy)methyl]-6-(trifluoromethyl)-3-pyridinyl]carbonyl]bicyclo[3.2.1]oct-3-en-2-one] the pI50 [1] was 5.0, the percentage of inhibition [1] was 19% and the “% of tolerant plant” value ([2]; line 34) was 17%. The “Class I (injury: 0-30%)” value ([2]; line 34) was 59, the “Class II (injury: 31-100%)” value ([2]; line 34) was 6 and the “% of tolerant plant” value ([2]; line 39) was 46%. The “Class I (injury: 0-30%)” value ([2]; line 39) was 100, the “Class II (injury: 31-100%)” value ([2]; line 39) was 48 and the “% of tolerant plant” value ([2]; line 197) was 15%. For the same molecule, the “Class I (injury: 0-30%)” value ([2]; line 197) was 89, the “Class II (injury: 31-100%)” value ([2]; line 197) was 15 and the “% of tolerant plant” value (wild type tobacco plants) was 0%. The “Class I (injury: 0-30%)” value (wild type tobacco plants) was 0 and the “Class II (injury: 31-100%)” value (wild type tobacco plants) was 12.
For `CS(=O)(=O)c1cc(C(F)(F)F)ccc1C(=O)C(C#N)C(=O)C1CC1` (stereo not drawn) [Diketonitrile, 2-cyano-3-cyclopropyl-1-(2-methylsulphonyl-4-trifluoromethylphenyl)-propane-1,3-dione], the Ki ([3]; 2 mM HPP) was 12 µM, the pI50 [1] was 5.5 and the percentage of inhibition [1] was 62%.
`O=C(O)C(=O)Cc1ccc(O)cc1` [HPP, para-hydroxyphenylpyruvate] gave a Km [4] of 6.3 µM, a Vmax [4] of 1.2 µM and a Km [3, 7] of 5.1 µM. The Vmax [3, 7] was 1.2 µM.
`CS(=O)(=O)c1cc(C(F)(F)F)ccc1C(=O)c1cnoc1C1CC1` [Isoxaflutole, (5-cyclopropyl-4-isoxazolyl)[2-(methylsulfonyl)-4-(trifluoromethyl)phenyl]methanone] was tested, and the bleaching of shoots (wild-type soybean shoots) was “entirely bleached” and the “transgenic tested shoots showing normal greening” value [5] was 0.6%.
For `CS(=O)(=O)c1ccc(C(=O)C2C(=O)CCCC2=O)c([N+](=O)[O-])c1` [Mesotrione, 2-[4-(methylsulfonyl)-2-nitrobenzoyl]-1,3-cyclohexanedione], the pI50 [1] was 5.4 and the percentage of inhibition [1] was 47%.
Molecule `Cc1nn(C)c(O)c1C(=O)c1ccc(C(F)(F)F)cc1S(C)(=O)=O` [Pyrasulfotole] has a pI50 [1] of 4.7, a percentage of inhibition [1] of 16% and a pI50 ([6]; 2 mM HPP, 3 minutes incubation) of 5.4. The percentage of inhibition ([6]; 5.0 × 10^−6 M inhibitor, compared to activity in absence of inhibitor) was 69%.
For `CS(=O)(=O)c1ccc(C(=O)C2C(=O)CCCC2=O)c(Cl)c1` [Sulcotrione, 2-[2-chloro-4-(methylsulfonyl)benzoyl]-1,3-cyclohexanedione], the percentage of inhibition [1] was 19%.
`CS(=O)(=O)c1ccc(C(=O)C2C(=O)CCCC2=O)c(Cl)c1COCC1CCCO1` (stereo not drawn) [Tefuryltrione, 2-[2-chloro-4-(methylsulfonyl)-3-[[(tetrahydro-2-furanyl)methoxy]methyl]benzoyl]-1,3-cyclohexanedione] was tested, and the pI50 [1] was 5.6 and the percentage of inhibition [1] was 72%.
